Assays:
[1] = test system: Platelet poor plasma; test: APTT clotting time in spiked platelet poor plasma, synergy model (Berenbaum); assay type: biochemical, human; conditions: for concentration of A required to reach the same APTT prolongation as that of the mixture (Ae): calculated from Eq 1; for concentration of B required to reach the same APTT prolongation as that of the mixture (Be): calculated from Eq 2
Method: Human blood from healthy volunteers, both men and women, was collected in 50 mL conical plastic tubes containing 5 mL of 0.13 mol/L of buffered tri-sodium citrate. The blood was immediately chilled on ice and centrifuged at […] for 20 minutes. Platelet poor plasma was then divided into fractions of 10 mL each and “spiked” with melagatran (Compound A) or with the title compound of Example 1 above (Compound B) to a final concentration that prolonged APTT by approximately 20%, 40%, 60% and 100%, respectively.
APTT was determined as follows: 100 μL of pre-warmed APTT reagent (Stago Diagnostica) was added to 100 μL of pre-warmed plasma and incubated for 180 s at 37° C. Coagulation was initiated by the addition of 100 μL of CaCl2 (0.025 mol/L). The clotting time was measured with a KC 10 Coagulometer, coupled to a CR-A calculator, CR 10 printer and PR60 heat block (Amelung GmbH, Lemago Germany). Each clotting test was performed in duplicate and the mean clotting time was used.
APTT for Compound A and Compound B were tested at 4 different concentrations and the results are shown in Table 1, in which Cp A and Cp B are the plasma concentrations of Compounds A and B, respectively. APTT values are expressed in seconds and, within brackets, as percentage prolongation over the baseline value.
In order to test a possible synergistic effect between Compounds A and B the following model was used. The concentrations of Compounds A and B that caused about 20%, 40% and 60% prolongation of APTT were first determined (Table 1). Equipotent concentrations of Compounds A and B, e.g. 0.08 μmol/L of A and 1.5 μmol/L of B, were then mixed and APTT for the mixtures were determined as above. An indication of synergy is obtained if APTT for this mixture is longer than APTT for a “mixture” of equipotent concentrations of Compound A itself (i.e. Compound A+Compound A at a concentration that prolongs APTT by 20% (0.08 μmol/L+0.08 μmol/L=0.16 μmol/L)). However, a true synergistic effect between two compounds can never be established unless the dose response curves for both individual compounds are known and all data applied to the algebraic model of Berenbaum's equation (see Clin. Exp. Immunol. (1977) 28, 18): […]
(Cp A in mixture/Ae)+(Cp B in mixture/Be)<1
In this equation, CpA and CpB are the plasma concentrations of Compounds A and B, respectively in the mixture, and Ae and Be are individual concentrations of Compounds A and B that are required to obtain the same APTT results as that of the mixture. These concentrations can be calculated from the linear dose-responses for Compounds A and B, respectively (Equations 1 and 2).

[2] = target: T1, Recombinant human factor VIIa (Homo sapiens, UniProt P08709); test: Test A: chromogenic robot method for Factor VIIa; assay type: biochemical
T1 construct: Recombinant human factor VIIa (rFVIIa, product no 407); purchased American Diagnostica Inc. product no 407 (rFVIIa); product no 4500 (rTF)
T1 sequence (P08709 213-466 limits assumed): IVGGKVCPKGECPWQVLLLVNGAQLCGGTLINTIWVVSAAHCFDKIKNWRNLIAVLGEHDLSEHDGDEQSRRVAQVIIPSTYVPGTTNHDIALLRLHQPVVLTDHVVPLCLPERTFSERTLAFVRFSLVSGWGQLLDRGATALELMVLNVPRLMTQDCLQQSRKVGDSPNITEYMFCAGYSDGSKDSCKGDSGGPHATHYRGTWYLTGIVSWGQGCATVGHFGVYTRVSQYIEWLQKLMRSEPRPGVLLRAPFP
T1 sequence (P08709 61-212 limits assumed): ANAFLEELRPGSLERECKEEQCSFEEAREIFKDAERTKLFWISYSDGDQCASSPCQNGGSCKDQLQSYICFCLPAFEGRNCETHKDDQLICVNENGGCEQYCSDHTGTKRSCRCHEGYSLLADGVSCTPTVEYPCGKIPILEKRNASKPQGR
T1 sequence (P13726 33-295 partner): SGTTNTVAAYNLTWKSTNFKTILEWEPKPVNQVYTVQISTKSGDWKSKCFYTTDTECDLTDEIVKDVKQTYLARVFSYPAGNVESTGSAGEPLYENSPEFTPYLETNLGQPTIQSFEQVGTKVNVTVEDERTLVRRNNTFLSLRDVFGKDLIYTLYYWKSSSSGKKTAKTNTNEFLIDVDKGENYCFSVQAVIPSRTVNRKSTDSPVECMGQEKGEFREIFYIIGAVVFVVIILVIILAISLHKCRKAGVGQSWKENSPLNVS
Method: Chromogenic Robot Method for Factor VIIa:
The chromogenic substrate Spectrozyme FVIIa, CH3SO2-D-CHA-But-Arg-pNA (pefachrome 5979 from Pentapharm, Switzerland) was purchased from American-Diagnostica Inc. (Greenwich, Conn., U.S.A.). The KM under the conditions of the assay was determined separately. Recombinant human factor VIIa (rFVIIa, product no 407) and non-lipidated recombinant human tissue-factor (rTF, product no 4500) were purchased from American Diagnostica Inc. The stock solutions of rFVIIa (1.08 mg protein dissolved with 1 mL water to 21.6 μM in 20 mM Tris-HCl, 100 mM NaCl, pH 7.4) and rTF (1 mg protein with 1.5 mL water to 19 μM in 50 mM Tris-HCl, pH 8.0, 150 mM NaCl, CHAPS (3-((3-cholamidopropyl)dimethylammoniol)-1-propanesulphonate; 10 mM) and 200 mM mannitol) were stored in 0.5 mL reagent tubes at −80° C. […] After mixing and incubation for 40 minutes at 37° C., the optical absorbance difference was read at 405 nm. The IC50 value for each compound was calculated by non-linear regression to the equation:
Where AI=the final absorbance at 405 nm in the presence of the inhibitor, A0=in the absence of inhibitor, and s the slope in the dose titration curve, which has the theoretical value of 1 for a pure competitive inhibitor. […]

[3] = target: T2, Human α-thrombin (Homo sapiens, UniProt P00734); test: Test B: thrombin inhibition, chromogenic robotic assay; assay type: biochemical; conditions: S-2366 0.30 mmol/L, 40 min 37° C.
T2 construct: Human α-thrombin, Sigma Chemical Co. or Hematologic Technologies; purchased Sigma Chemical Co. or Hematologic Technologies
Method: Determination of Thrombin Inhibition with a Chromogenic, Robotic Assay
Thrombin inhibitor potency was measured with a chromogenic substrate method, in a Plato 3300 robotic microplate processor (Rosys AG, CH-8634 Hombrechtikon, Switzerland), using 96-well, half volume microtitre plates (Costar, Cambridge, Mass., U.S.A.; Cat No 3690). Stock solutions of test substance in DMSO (72 μL), 0.1-1 mmol/L, were diluted serially 1:3 (24+48 μL) with DMSO to obtain ten different concentrations, which were analysed as samples in the assay. 2 μL of test sample was diluted with 124 μL assay buffer, 12 μL of chromogenic substrate solution (S-2366, Chromogenix, Mölndal, Sweden) in assay buffer and finally 12 μL of α-thrombin solution (Human α-thrombin, Sigma Chemical Co. or Hematologic Technologies) in assay buffer, were added, and the samples mixed. The final assay concentrations were: test substance 0.00068-13.3 μmol/L, S-2366 0.30 mmol/L, α-thrombin 0.020 NIHU/mL. The linear absorbance increment during 40 minutes incubation at 37° C. was used for calculation of percentage inhibition for the test samples, as compared to blanks without inhibitor. The IC50-robotic value, corresponding to the inhibitor concentration which causes 50% inhibition of the thrombin activity, was calculated from a log concentration vs. % inhibition curve.

[4] = test system: human plasma; test: Test C: prothrombin time (PT) assay; assay type: biochemical; conditions: Thromborel S, doubling of the clotting time
Method: Prothrombin Time (PT) Assay
The following reagents were prepared: An aliquot of a frozen human plasma pool, containing citrate as an anticoagulant, was rapidly thawed at 37° C. A 10 mM stock solution of the inhibitor in DMSO was diluted with saline containing 0.1% BSA to a final 1% of DMSO. Series dilutions were made in steps of 1:3 for a dose response titration. Thromborel® S from Dade Behring GmbH (Marburg, Germany), was reconstituted 1:10 with 25 mM CaCl2, according to the instructions of the manufacturer. 2.5μL of inhibitor was mixed with 22.5 μL human plasma, incubated for 1 min. at 37° C. in the cup of an Amelung KC10 microcoagulometer from Heinrich Amelung GmbH (Lemgo, Germany). Coagulation was initiated by addition of 50 μL Thromborel S, which was pre-warmed at 37° C. The time to clot was determined (CTI) for each inhibitor concentration ([I]) in duplo. A titration curve was made by plotting the inverse clotting time versus the inhibitor concentration. The IC50 value, the time to double the clotting time, was determined by non-linear regression to the equation:
CT0/CTI=1/(1+([I]/IC50)^S)
where “CT0”=the clotting time without inhibitor added, and “s” the slope.

[5] = mixture 0.08 (A) + 1.5 (B) μmol/L
[6] = mixture 0.18 (A) + 3.2 (B) μmol/L
[7] = mixture 0.27 (A) + 4.9 (B) μmol/L

In the case of `N=C(N)c1ccc(CNC(=O)[C@@H]2CCN2C(=O)[C@H](NCC(=O)O)C2CCCCC2)cc1` [Compound A, HOOC—CH2—(R)Cgl-Aze-Pab-H], the APTT ([1]; Compound A + A, 0.08 + 0.08 = 0.16 μmol/L) is reported as 51.8 s, the APTT ([1]; Compound A + A, 0.18 + 0.18 = 0.36 μmol/L) is reported as 62.4 s and the APTT ([1]; Compound A + A, 0.27 + 0.27 = 0.54 μmol/L) is reported as 71.9 s. For the same molecule, the “APTT percentage prolongation over the baseline value” (“APTT percentage prolongation” below) ([1]; Cp A 0.08 μmol/L) was 24%, the APTT ([1]; Cp A 0.08 μmol/L, baseline 36.8 s) was 45.8 s and the “APTT percentage prolongation” value ([1]; Cp A 0.18 μmol/L) was 46%. For the same molecule, the APTT ([1]; Cp A 0.18 μmol/L, baseline 36.8 s) was 53.8 s, the “APTT percentage prolongation” value ([1]; Cp A 0.27 μmol/L) was 61% and the APTT ([1]; Cp A 0.27 μmol/L, baseline 36.8 s) was 59.2 s. The “APTT percentage prolongation” value ([1]; Cp A 0.56 μmol/L) was 96%, the APTT ([1]; Cp A 0.56 μmol/L, baseline 36.8 s) was 72.1 s and the “concentration of A required to reach the same APTT prolongation as that of the mixture (Ae)” value (“concentration of A required” for short) [1, 5] was 0.21 µmol/L. For the same molecule, the “concentration of A required” value [1, 6] was 0.53 µmol/L and the “concentration of A required” value [1, 7] was 0.83 µmol/L.

For `CC(C)C[C@H](NC(=O)[C@H](NS(=O)(=O)Cc1cccc(C(=O)O)c1)C(C)C)C(=O)NCc1ccc(C(=N)N)cc1` [Example 1, N-[(3-Carboxybenzyl)sulfonyl]-D-valyl-N^1-{4-[amino(imino)methyl]-benzyl}-L-leucinamide], the IC50 ([2]; Test A, rFVIIa-rTF, Spectrozyme FVIIa 0.2 mM, 40 min 37° C.) was 0.064 µM, the “selectivity for Factor VIIa” value ([2]; conclusion from Tests A, B and C) was “selective inhibitor of Factor VIIa” and the IC50 [3] was 6.2 µM. The IC50 [4] was 3.8 µM, the “APTT percentage prolongation” value ([1]; Cp B 1.50 μmol/L) was 26% and the APTT ([1]; Cp B 1.50 μmol/L, baseline 35.7 s) was 45.2 s. The “APTT percentage prolongation” value ([1]; Cp B 3.20 μmol/L) was 44%, the APTT ([1]; Cp B 3.20 μmol/L, baseline 35.7 s) was 51.5 s and the “APTT percentage prolongation” value ([1]; Cp B 4.90 μmol/L) was 62%. The APTT ([1]; Cp B 4.90 μmol/L, baseline 35.7 s) was 57.7 s, the “APTT percentage prolongation” value ([1]; Cp B 8.30 μmol/L) was 105% and the APTT ([1]; Cp B 8.30 μmol/L, baseline 35.7 s) was 73.3 s. The “concentration of B required to reach the same APTT prolongation as that of the mixture (Be)” value (“concentration of B required” below) [1, 5] was 3.87 µmol/L, the “concentration of B required” value [1, 6] was 7.98 µmol/L and the “concentration of B required” value [1, 7] was 11.80 µmol/L.

From patent US20030153506A1, “Combination product comprising melagatran and factor VIIa inhibitor” (priority 2000, published 2003)
